Experimental findings from patent US20230105212A1, “BIPHENYL DERIVATIVE INHIBITOR, PREPARATION METHOD THEREFOR AND USE THEREOF” (SHANGHAI HANSOH BIOMEDICAL CO., LTD., priority 2020, published 2023) are described below.

Molecules are shown by their SMILES. Read-outs that look alike come from different tables or passages of the source.

The target in one assay is T1, human PD-1/PD-L1 binding (Homo sapiens, UniProt Q9NZQ7).
T1 construct: PD-L1-His protein (19 to 238 amino acids) (Abcam #ab167713); purchased Abcam (PD-L1-His); R&D (PD-1-Fc) ab167713; 1086-PD
Kind of assay: Inhibition of human PD-1/PD-L1 binding (TR-FRET/HTRF). Particulars: TR-FRET, PD-L1-His and PD-1-Fc; read-out: PD-1/PD-L1 binding IC50. The procedure, abridged: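 PD-L1-His (aa 19–238, diluted to 10 nM) and PD-1-Fc (aa 25–167, diluted to 20 nM) incubated with compounds (10 μM or 1 μM top, 3-fold, 11 doses) 60 min at room temperature, then anti-6HIS Eu cryptate/anti-human IgG-XL665 added for 3 h RT or overnight 4 °C. HTRF 665/620 nm ratio gave inhibition and IC50.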
For orientation: Time-resolved FRET reads energy transfer from a long-lived donor to a nearby acceptor.

In a further assay the target is T2, human PD-L1 protein (Homo sapiens, UniProt Q9NZQ7).
T2 construct: purchased Acro Biosystems PD1-H5229
In words: Thermal shift: melting temperature of PD-L1 protein. Particulars: read-out: ΔTm (° C.). The class given is binding. The procedure:
Test Embodiment 4. Test of Combination of the Compounds of the Present Disclosure to Improve the Stability (Melting Temperature) of PD-L1 Protein Experimental purpose: To test the ability of compounds to enhance the stability of PD-L1 protein and increase the melting temperature of the protein. Experimental method: […] A solution containing […] HEPES, SYPRO Orange, and 150 mM NaCl was prepared as experimental buffer, and human PD-L1 protein was added at a final concentration of 2 μM. […] PCR tube was put into the PCR machine, and the melt curve function was selected to detect the melting temperature of PD-L1 protein in different treatment groups (heated from 25° C. to 95° C., 0.03° C./s). The experimental data file of the PCR instrument was imported into the thermal shift software to obtain the melting temperature (Tm) of each treatment group, and the Tm of the DMSO vehicle control group was subtracted to obtain the change value (ΔTm) of the melting temperature, as shown in the following table: […]

The target of assay [1] is T3, PD-L1 protein on the surface of MC38-hPDL1 tumor cells (Homo sapiens, UniProt Q9NZQ7).
T3 construct: expressed in transfected cells; host or cells: MC38-hPDL1 (mouse colon cancer cells)
In words: Induction of endocytosis of PD-L1 on the surface of tumor cells (flow cytometry). The class given is cell-based. Particulars: 16 hours incubation; for Emax: MC38-hPDL1 cells, read-out: MC38 maximum endocytosis rate; for IC50: inducing endocytosis of PD-L1, MC38-hPDL1 cells, read-out: MC38 IC50. In outline:
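IC50 comes from nonlinear fits of endocytosis rate, calculated from the loss of surface PE-anti-CD274 flow signal relative to vehicle. Cells were MC38 mouse colon cancer cells engineered to express high human PD-L1. Compound exposure lasted 16 h at 37 °C, 5% CO2.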
(In general: Flow cytometry measures light scatter and fluorescence of single cells or particles in a stream.)

Where [2] appears, read: compound 10 μM, PD-L1 protein 2 μM, Tm minus DMSO vehicle control.

T2 sequence (Q9NZQ7 19-238 limits assumed): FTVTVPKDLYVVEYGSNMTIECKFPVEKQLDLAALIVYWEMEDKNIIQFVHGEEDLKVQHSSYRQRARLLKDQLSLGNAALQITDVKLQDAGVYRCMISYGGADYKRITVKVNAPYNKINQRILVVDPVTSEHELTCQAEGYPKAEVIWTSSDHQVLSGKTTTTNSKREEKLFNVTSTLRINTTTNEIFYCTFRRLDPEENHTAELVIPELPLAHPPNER
T1 sequence (Q9NZQ7 19-238): as the sequence (Q9NZQ7 19-238 limits assumed) above
T3 sequence (Q9NZQ7 19-290): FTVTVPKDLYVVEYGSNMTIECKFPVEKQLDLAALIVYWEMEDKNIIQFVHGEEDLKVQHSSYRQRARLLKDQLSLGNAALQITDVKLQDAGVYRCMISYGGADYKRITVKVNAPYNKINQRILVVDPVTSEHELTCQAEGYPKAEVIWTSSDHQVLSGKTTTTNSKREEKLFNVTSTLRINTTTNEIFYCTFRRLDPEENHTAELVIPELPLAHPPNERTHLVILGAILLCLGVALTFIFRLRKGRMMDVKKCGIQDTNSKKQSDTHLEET

Regarding `COc1nc(-c2cccc(-c3cccc(NC(=O)c4nc5c(n4C)CCN(C)C5)c3Cl)c2Cl)ccc1CNC1CN(C(C)=O)C1` [Embodiment 179, N-(3′-(5-(((1-Acetylazetidin-3-yl)amino)methyl)-6-methoxypyridin-2-yl)-2,2′-dichloro-[1,1′-biphenyl]-3-yl)-1,5-dimethyl-4,5,6,7-tetrahydro-1H-imidazo[4,5-c]pyridine-2-carboxamide], the IC50 at human PD-1/PD-L1 binding was determined as 7.9 nM. Moreover, the ΔTm at 10 µM on human PD-L1 protein (setting [2]) amounted to 12.3 °C. In assay [1], the Emax was 96%.
For the compound `COc1nc(-c2cccc(-c3cccc(NC(=O)c4nc5c(n4C)CCN(C)C5)c3Cl)c2Cl)ccc1CN1CC[C@H]1CO` [Embodiment 172, (S)—N-(2,2′-Dichloro-3′-(5-((2-(hydroxymethyl)azetidin-1-yl)methyl)-6-methoxypyridin-2-yl)-[1,1′-biphenyl]-3-yl)-1,5-dimethyl-4,5,6,7-tetrahydro-1H-imidazo[4,5-c]pyridine-2-carboxamide], the IC50 on human PD-1/PD-L1 binding is 6.3 nM. Further, the ΔTm at 10 µM at human PD-L1 protein is 13.9 °C. In addition, in assay [1], the Emax is 94%.
As for `CCn1c(C(=O)Nc2cccc(-c3cccc(-c4ccc(CN5CC6(COC6)C5)c(OC)n4)c3Cl)c2Cl)nc2c1CCN(C)C2` [Embodiment 237, N-(3′-(5-((2-Oxa-6-azaspiro[3.3]heptan-6-yl)methyl)-6-methoxypyridin-2-yl)-2,2′-dichloro-[1,1′-biphenyl]-3-yl)-1-ethyl-5-methyl-4,5,6,7-tetrahydro-1H-imidazo[4,5-c]pyridine-2-carboxamide], on human PD-1/PD-L1 binding, the IC50 turned out to be 5.2 nM. For the same compound, the ΔTm at 10 µM at human PD-L1 protein (setting [2]) amounted to 11.6 °C. The Emax in assay [1] came to 94%.
Consider `COc1nc(-c2cccc(-c3cccc(NC(=O)c4nc5c(n4C)CCN(C)C5)c3Cl)c2Cl)ccc1CN1CC(C(=O)O)C1` [Embodiment 135, 1-((6-(2,2′-Dichloro-3′-(1,5-dimethyl-4,5,6,7-tetrahydro-1H-imidazo[4,5-c]pyridine-2-carboxamido)-[1,1′-biphenyl]-3-yl)-2-methoxypyridin-3-yl)methyl)azetidine-3-carboxylic Acid], for which, on human PD-1/PD-L1 binding, the IC50 is 1.2 nM. Further, the ΔTm at 10 µM at human PD-L1 protein (setting [2]) is 16.7 °C. Besides, in assay [1], the Emax turned out to be 98% and the IC50 amounted to 3.1 nM.
`COc1nc(-c2cccc(-c3cccc(NC(=O)c4nc5c(n4C)CCN(C)C5)c3Cl)c2Cl)ccc1CNC[C@@H](C)O` [Embodiment 128, (R)—N-(2,2′-Dichloro-3′-(5-(((2-hydroxypropyl)amino)methyl)-6-methoxypyridin-2-yl)-[1,1′-biphenyl]-3-yl)-1,5-dimethyl-4,5,6,7-tetrahydro-1H-imidazo[4,5-c]pyridine-2-carboxamide]: the IC50 on human PD-1/PD-L1 binding is 6.5 nM; in assay [1], 0.6 nM. The shift in melting temperature (ΔTm) at 10 µM at human PD-L1 protein (setting [2]) is 16.8 °C. In addition, the Emax in assay [1] worked out at 98%.
As to `COc1nc(-c2cccc(-c3cccc(NC(=O)c4nc5c(n4C)CCN(C)C5)c3Cl)c2Cl)ccc1CN1CC(C)(O)C1` [Embodiment 130, N-(2,2′-Dichloro-3′-(5-((3-hydroxy-3-methylazetidin-1-yl)methyl)-6-methoxypyridin-2-yl)-[1,1′-biphenyl]-3-yl)-1,5-dimethyl-4,5,6,7-tetrahydro-1H-imidazo[4,5-c]pyridine-2-carboxamide], the IC50 on human PD-1/PD-L1 binding was 4.8 nM. The shift in melting temperature (ΔTm) at 10 µM on human PD-L1 protein stood at 18.1 °C. In assay [1], the Emax stood at 97% and the IC50 was determined as 1.2 nM.
The corresponding values for `COc1nc(-c2cccc(-c3cccc(NC(=O)c4nc5c(n4C)CCN(C)C5)c3Cl)c2Cl)ccc1CN1CC(O)C1` [Embodiment 129, N-(2,2′-Dichloro-3′-(5-((3-hydroxyazetidin-1-yl)methyl)-6-methoxypyridin-2-yl)-[1,1′-biphenyl]-3-yl)-1,5-dimethyl-4,5,6,7-tetrahydro-1H-imidazo[4,5-c]pyridine-2-carboxamide] are 2.9 nM, 13.9 °C, 95% and 1 nM.
Consider `COc1nc(-c2cccc(-c3cccc(NC(=O)c4nc5c(n4C)CCN(C)C5)c3Cl)c2Cl)ccc1CN1CCCC[C@H]1C(=O)O` [Embodiment 230, (S)-1-((6-(2,2′-Dichloro-3′-(1,5-dimethyl-4,5,6,7-tetrahydro-1H-imidazo[4,5-c]pyridine-2-carboxamido)-[1,1′-biphenyl]-3-yl)-2-methoxypyridin-3-yl)methyl)piperidine-2-carboxylic Acid], for which the IC50 at human PD-1/PD-L1 binding came to 1.8 nM. Moreover, the ΔTm at 10 µM on human PD-L1 protein (setting [2]) was found to be 11.3 °C. Also, in assay [1], the Emax is 95%.
As for `CCn1c(C(=O)Nc2cccc(-c3cccc(-c4ccc(CN5CC(C(=O)O)C5)c(OC)n4)c3Cl)c2Cl)nc2c1CCN(C)C2` [Embodiment 240, 1-((6-(2,2′-Dichloro-3′-(1-ethyl-5-methyl-4,5,6,7-tetrahydro-1H-imidazo[4,5-c]pyridine-2-carboxamido)-[1,1′-biphenyl]-3-yl)-2-methoxypyridin-3-yl)methyl)azetidine-3-carboxylic Acid], the IC50 on human PD-1/PD-L1 binding worked out at 2.8 nM. For the same compound, the ΔTm at 10 µM at human PD-L1 protein (setting [2]) amounted to 13 °C. In addition, in assay [1], the Emax worked out at 97%.
The corresponding values for `COc1nc(-c2cccc(-c3cccc(NC(=O)c4nc5c(n4C)CCN(C)C5)c3Cl)c2Cl)ccc1CN[C@@H](CO)C(=O)O` [Embodiment 232, ((6-(2,2′-Dichloro-3′-(1,5-dimethyl-4,5,6,7-tetrahydro-1H-imidazo[4,5-c]pyridine-2-carboxamido)-[1,1′-biphenyl]-3-yl)-2-methoxypyridin-3-yl)methyl)-L-serine] are 1.7 nM, 11.1 °C and 94%.
`COc1nc(-c2cccc(-c3cccc(NC(=O)c4nc5c(n4C)CCN(C)C5)c3Cl)c2Cl)ccc1CN1CC2(CCCO2)C1` [Embodiment 125, N-(3′-(5-((5-Oxa-2-azaspiro[3.4]octan-2-yl)methyl)-6-methoxypyridin-2-yl)-2,2′-dichloro-[1,1′-biphenyl]-3-yl)-1,5-dimethyl-4,5,6,7-tetrahydro-1H-imidazo[4,5-c]pyridine-2-carboxamide]: the IC50 at human PD-1/PD-L1 binding was determined as 8.4 nM. Besides, the ΔTm at 10 µM at human PD-L1 protein amounted to 15.6 °C. Further, in assay [1], the Emax came to 96% and the IC50 came out at 0.7 nM.
`COc1nc(-c2cccc(-c3cccc(NC(=O)c4nc5c(n4C)CCN(C)C5)c3Cl)c2Cl)ccc1CN1CC2(C1)CN(C(=O)CC#N)C2` [Embodiment 191, N-(2,2′-Dichloro-3′-(5-((6-(2-cyanoacetyl)-2,6-diazaspiro[3.3]heptan-2-yl)methyl)-6-methoxypyridin-2-yl)-[1,1′-biphenyl]-3-yl)-1,5-dimethyl-4,5,6,7-tetrahydro-1H-imidazo[4,5-c]pyridine-2-carboxamide]: the IC50 on human PD-1/PD-L1 binding came to 4.8 nM. Moreover, the shift in melting temperature (ΔTm) at 10 µM at human PD-L1 protein (setting [2]) stood at 11.7 °C. The Emax in assay [1] came out at 97%.
As to `COc1nc(-c2cccc(-c3cccc(NC(=O)c4nc5c(n4C)CCN(C)C5)c3Cl)c2Cl)ccc1CN1CC2(C1)CN(C(=O)C(F)F)C2` [Embodiment 190, N-(2,2′-Dichloro-3′-(5-((6-(2,2-difluoroacetyl)-2,6-diazaspiro[3.3]heptan-2-yl)methyl)-6-methoxypyridin-2-yl)-[1,1′-biphenyl]-3-yl)-1,5-dimethyl-4,5,6,7-tetrahydro-1H-imidazo[4,5-c]pyridine-2-carboxamide], the IC50 on human PD-1/PD-L1 binding was determined as 8.5 nM. In addition, the thermal shift (ΔTm) at 10 µM on human PD-L1 protein (setting [2]) amounted to 14 °C. Also, in assay [1], the Emax is 97% and the IC50 is 0.8 nM.
For the compound `COc1nc(-c2cccc(-c3cccc(NC(=O)c4nc5c(n4C4CC4)CCN(C)C5)c3Cl)c2Cl)ccc1CN1CC(CO)C1` [Embodiment 245, 1-Cyclopropyl-N-(2,2′-dichloro-3′-(5-((3-(hydroxymethyl)azetidin-1-yl)methyl)-6-methoxypyridin-2-yl)-[1,1′-biphenyl]-3-yl)-5-methyl-4,5,6,7-tetrahydro-1H-imidazo[4,5-c]pyridine-2-carboxamide], the IC50 on human PD-1/PD-L1 binding turned out to be 4.4 nM. The ΔTm at 10 µM on human PD-L1 protein (setting [2]) was determined as 10.2 °C. For the same compound, the Emax in assay [1] was 93%.
The corresponding values for `COc1nc(-c2cccc(-c3cccc(NC(=O)c4nc5c(n4C)CCN(C)C5)c3Cl)c2Cl)ncc1CN[C@H]1CCOC[C@@H]1O` (relative stereo) [Embodiment 228, N-(2,2′-Dichloro-3′-(5-(((trans-3-hydroxytetrahydro-2H-pyran-4-yl)amino)methyl)-4-methoxypyrimidin-2-yl)-[1,1′-biphenyl]-3-yl)-1,5-dimethyl-4,5,6,7-tetrahydro-1H-imidazo[4,5-c]pyridine-2-carboxamide] are 4.2 nM, 11.6 °C and 95%.

The term ΔTm denotes the shift of the melting midpoint relative to a reference.
